Experimental data reported in the NIST ThermoML archive (doi:10.1021/je700645p).
Numbers after ± are expanded uncertainties.

Tests used:
[1] = 81.5 kPa, Liquid
[2] = refractive index (Na D-line) (dimensionless); conditions: 298.15 K; 81.5 kPa; Liquid; Standard Abbe refractometry
[3] = xn = mol fraction of the nth substance listed; conditions: 81.5 kPa, Liquid

CC#N [acetonitrile]
[1]
Conditions	mass density [kg/m3]
293.15 K	781.97 ± 0.24
303.15 K	771.15 ± 0.25
313.15 K	760.2 ± 0.3
323.15 K	749.12 ± 0.26
333.15 K	737.87 ± 0.27

Conditions	refractive index
[2]	1.3417 ± 0.0008

CC#N [acetonitrile] + C[S+](C)[O-]
[3], x1 = 1
Conditions	mass density [kg/m3]
293.15 K	781.97 ± 0.47
303.15 K	771.15 ± 0.49
313.15 K	760.2 ± 0.5
323.15 K	749.12 ± 0.52
333.15 K	737.87 ± 0.54

CC#N [acetonitrile] + O
mass density [kg/m3], [3]
Conditions	293.15 K	303.15 K	313.15 K	323.15 K	333.15 K
x2 = 0	781.97 ± 0.24	771.15 ± 0.25	760.2 ± 0.3	749.12 ± 0.26	737.87 ± 0.27
x2 = 0.0417	785.6 ± 0.2	774.79 ± 0.24	763.85 ± 0.25	752.77 ± 0.26	741.52 ± 0.27
x2 = 0.0833	789.62 ± 0.23	778.83 ± 0.24	767.91 ± 0.25	756.84 ± 0.26	745.6 ± 0.3
x2 = 0.1568	797.67 ± 0.23	786.95 ± 0.23	776.09 ± 0.24	765.06 ± 0.25	753.85 ± 0.26
x2 = 0.2095	804.01 ± 0.22	793.33 ± 0.23	782.6 ± 0.2	771.62 ± 0.25	760.47 ± 0.25
x2 = 0.3247	819.96 ± 0.21	809.63 ± 0.22	799.11 ± 0.22	788.38 ± 0.23	777.43 ± 0.24
x2 = 0.4127	834.27 ± 0.2	824.27 ± 0.2	814.05 ± 0.21	803.6 ± 0.2	792.91 ± 0.23
x2 = 0.496	849.71 ± 0.18	840.11 ± 0.19	830.25 ± 0.2	820.14 ± 0.21	809.77 ± 0.21
x2 = 0.5704	864.78 ± 0.17	855.57 ± 0.18	846.08 ± 0.19	836.32 ± 0.19	826.29 ± 0.2
x2 = 0.6361	880.12 ± 0.16	871.32 ± 0.17	862.22 ± 0.17	852.82 ± 0.18	843.13 ± 0.19
x2 = 0.7201	902.94 ± 0.14	894.74 ± 0.15	886.22 ± 0.15	877.38 ± 0.16	868.22 ± 0.17
x2 = 0.7961	926.99 ± 0.12	919.47 ± 0.13	911.61 ± 0.13	903.39 ± 0.14	894.84 ± 0.15
x2 = 0.8788	956.73 ± 0.1	950.35 ± 0.1	943.52 ± 0.11	936.28 ± 0.12	928.67 ± 0.12
x2 = 0.9573	984.72 ± 0.08	980.43 ± 0.08	975.45 ± 0.08	969.87 ± 0.09	963.64 ± 0.09

C[S+](C)[O-] [dimethyl sulfoxide]
[1]
Conditions	mass density [kg/m3]
293.15 K	1100.41 ± 0.34
303.15 K	1090.37 ± 0.32
313.15 K	1080.34 ± 0.31
323.15 K	1070.3 ± 0.29
333.15 K	1060.27 ± 0.27

Conditions	refractive index
[2]	1.4767 ± 0.0008

C[S+](C)[O-] [dimethyl sulfoxide] + CC#N
mass density [kg/m3], [3]
Conditions	293.15 K	303.15 K	313.15 K	323.15 K	333.15 K
x2 = 0	1100.41 ± 0.34	1090.37 ± 0.32	1080.34 ± 0.31	1070.3 ± 0.29	1060.27 ± 0.27
x2 = 0.0563	1087.32 ± 0.32	1077.27 ± 0.3	1067.22 ± 0.28	1057.17 ± 0.27	1047.11 ± 0.25
x2 = 0.1195	1072.32 ± 0.29	1062.27 ± 0.27	1052.21 ± 0.25	1042.11 ± 0.24	1032.03 ± 0.22
x2 = 0.1751	1058.54 ± 0.26	1048.48 ± 0.24	1038.38 ± 0.23	1028.38 ± 0.21	1018.15 ± 0.19
x2 = 0.2996	1025.83 ± 0.2	1015.69 ± 0.18	1005.54 ± 0.17	995.35 ± 0.17	985.14 ± 0.18
x2 = 0.3723	1005.56 ± 0.16	995.38 ± 0.16	985.18 ± 0.18	974.94 ± 0.19	964.64 ± 0.21
x2 = 0.4529	981.91 ± 0.18	971.68 ± 0.19	961.4 ± 0.21	951.09 ± 0.22	940.71 ± 0.24
x2 = 0.5273	959 ± 0.21	948.69 ± 0.23	938.36 ± 0.24	927.96 ± 0.26	917.5 ± 0.27
x2 = 0.579	942.39 ± 0.23	932.08 ± 0.25	921.68 ± 0.26	911.22 ± 0.28	900.68 ± 0.3
x2 = 0.6896	904.94 ± 0.29	894.48 ± 0.3	883.96 ± 0.32	873.36 ± 0.34	862.66 ± 0.35
x2 = 0.7579	880.41 ± 0.32	869.88 ± 0.34	859.27 ± 0.36	848.57 ± 0.37	837.77 ± 0.39
x2 = 0.8337	851.62 ± 0.37	841 ± 0.38	830.29 ± 0.4	819.48 ± 0.41	808.55 ± 0.43
x2 = 0.933	811.3 ± 0.43	800.6 ± 0.44	789.76 ± 0.46	778.79 ± 0.48	767.68 ± 0.49

C[S+](C)[O-] [dimethyl sulfoxide] + O
mass density [kg/m3], [3]
Conditions	293.15 K	303.15 K	313.15 K	323.15 K	333.15 K
x2 = 0	1100.41 ± 0.34	1090.37 ± 0.32	1080.34 ± 0.31	1070.3 ± 0.29	1060.27 ± 0.27
x2 = 0.0568	1100.94 ± 0.34	1090.97 ± 0.32	1081.01 ± 0.3	1071.03 ± 0.29	1061.04 ± 0.27
x2 = 0.1605	1101.91 ± 0.33	1092.1 ± 0.31	1082.26 ± 0.3	1072.41 ± 0.28	1062.5 ± 0.3
x2 = 0.2252	1102.54 ± 0.32	1092.83 ± 0.31	1083.1 ± 0.3	1073.32 ± 0.28	1063.49 ± 0.26
x2 = 0.3187	1103.26 ± 0.32	1093.73 ± 0.3	1084.18 ± 0.29	1074.52 ± 0.27	1064.79 ± 0.26
x2 = 0.3953	1103.54 ± 0.31	1094.31 ± 0.3	1084.89 ± 0.28	1075.37 ± 0.27	1065.74 ± 0.25
x2 = 0.4582	1103.48 ± 0.31	1094.25 ± 0.3	1084.95 ± 0.28	1075.54 ± 0.27	1066 ± 0.25
x2 = 0.5473	1102.05 ± 0.3	1093.11 ± 0.29	1084.03 ± 0.27	1074.8 ± 0.26	1065.41 ± 0.24
x2 = 0.6473	1097.2 ± 0.29	1088.67 ± 0.28	1079.97 ± 0.26	1071.08 ± 0.25	1062 ± 0.23
x2 = 0.7213	1089.55 ± 0.27	1081.52 ± 0.26	1073.28 ± 0.25	1064.82 ± 0.24	1056.12 ± 0.22
x2 = 0.7997	1075.48 ± 0.25	1068.31 ± 0.24	1060.87 ± 0.23	1053.13 ± 0.21	1045.11 ± 0.2
x2 = 0.8828	1051.12 ± 0.21	1045.47 ± 0.2	1039.4 ± 0.19	1032.81 ± 0.18	1024.92 ± 0.17
x2 = 0.9632	1016.98 ± 0.15	1013.46 ± 0.15	1009.19 ± 0.14	1003.92 ± 0.13	998.73 ± 0.13

O [water] + CC#N
[3], x1 = 1
Conditions	mass density [kg/m3]
323.15 K	988.03 ± 0.07
333.15 K	983.19 ± 0.08

O [water] + C[S+](C)[O-]
[3], x1 = 1
Conditions	mass density [kg/m3]
323.15 K	988.03 ± 0.14
333.15 K	983.19 ± 0.15
